Data published in ChEMBL document CHEMBL1132778, “Synthesis of derivatives of NK109, 7-OH benzo[c]phenanthridine alkaloid, and evaluation of their cytotoxicities and reduction-resistant properties” (Bioorg Med Chem Lett, 2000).

system: HeLa; experiment: Evaluated for cytotoxicity against HeLa S3 cells; assay type: functional, cell-based; details: Homo sapiens

| Compound | IC50 [nM] |
| --- | --- |
| C[n+]1cc2c(O)c(OCc3ccccc3)ccc2c2ccc3cc4c(cc3c21)OCO4 | 17000 |
| CCC[n+]1cc2c(O)c(OC)ccc2c2ccc3cc4c(cc3c21)OCO4 | 400 |
| C=CCOc1ccc2c(c[n+](C)c3c4cc5c(cc4ccc23)OCO5)c1O | 710 |
| CCCc1c2c(O)c(OC)ccc2c2ccc3cc4c(cc3c2[n+]1C)OCO4 | 2900 |
| COc1ccc(-c2c3c(O)c(OC)ccc3c3ccc4cc5c(cc4c3[n+]2C)OCO5)cc1 | 16000 |
| CC(=O)OCCOc1ccc2c(c[n+](C)c3c4cc5c(cc4ccc23)OCO5)c1O | 480 |
| CC[n+]1cc2c(O)c(OC)ccc2c2ccc3cc4c(cc3c21)OCO4 | 400 |
| COC(=O)COc1ccc2c(c[n+](C)c3c4cc5c(cc4ccc23)OCO5)c1O | 15000 |
| C=CC[n+]1cc2c(O)c(OC)ccc2c2ccc3cc4c(cc3c21)OCO4 | 760 |
| C[n+]1cc2c(O)c(OCC(=O)O)ccc2c2ccc3cc4c(cc3c21)OCO4 | > 24000 |
| CCc1c2c(O)c(OC)ccc2c2ccc3cc4c(cc3c2[n+]1C)OCO4 | 11000 |
| CC(C)Oc1ccc2c(c[n+](C)c3c4cc5c(cc4ccc23)OCO5)c1O | 2400 |
| COc1ccc2c(c[n+](CC(=O)O)c3c4cc5c(cc4ccc23)OCO5)c1O | > 24000 |
| COc1ccc2c(c1O)c(C)[n+](C)c1c3cc4c(cc3ccc21)OCO4 | 2900 |
| COc1ccc2c(c1O)c(-c1ccccc1)[n+](C)c1c3cc4c(cc3ccc21)OCO4 | 17000 |
| C[n+]1cc2c(O)c(OCCO)ccc2c2ccc3cc4c(cc3c21)OCO4 | 520 |
| COc1ccc2c(c1O)c(C1CC1)[n+](C)c1c3cc4c(cc3ccc21)OCO4 | 6500 |
| C[n+]1cc2c(O)c(OCC(N)=O)ccc2c2ccc3cc4c(cc3c21)OCO4 | 1900 |
| COc1ccc2c(c[n+](C)c3c4cc5c(cc4ccc23)OCO5)c1O [FAGARIDINE] | 320 |
